Assay results as given in patent publication US9914722B2, “Compounds for treating spinal muscular atrophy” (PTC Therapeutics Inc., priority 2012, dated 2018).

Tests used:
[1] = test system: full length SMN2 minigene mRNA containing SMN2 exon 7 (SMN2-A minigene); assay: SMN2 minigene mRNA splicing RT-qPCR assay in cultured cells; type: cell-based, human; conditions: for SMN2 minigene FL mRNA relative to vehicle / SMN2 minigene alternative splicing / exon 7 inclusion: HEK293H cells with SMN2-A minigene, 24 hr, RT-qPCR, FIG. 3; for EC (1.5-fold): Homo sapiens, HEK293-H, HEK293H cells stably transfected with SMN2-A minigene, 24 hours, 7-point concentration curve, concentration giving 1.5-fold SMN2 full length mRNA vs vehicle, read-out: EC1.5x for production of full length SMN2 mRNA
Outline: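 HEK293H cells stably carrying the SMN2-A minigene were treated 24 h at 37 °C with a 7-point, 3.16-fold test compound series, in duplicate. Multiplex RT-qPCR measured exon 7-containing minigene FL mRNA, normalized to GAPDH and expressed relative to vehicle; EC1.5x is the concentration giving 1.5-fold FL mRNA.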

SMILES: C[C@@H]1CN(c2ccc3oc(-c4cn5ccccc5n4)cc(=O)c3c2)C[C@H](C)N1 [Cpd 17, 6-[(3R,5S)-3,5-dimethylpiperazin-1-yl]-2-(imidazo[1,2-a]pyridin-2-yl)-4H-chromen-4-one]
- SMN2 minigene FL mRNA relative to vehicle [1]: increased SMN2 minigene FL mRNA at low concentrations
- SMN2 minigene alternative splicing / exon 7 inclusion [1]: correction of SMN2 minigene alternative splicing
- EC (1.5-fold) [1]: 1 to 3 µM
- melting point: 208 to 210 °C

SMILES: COc1ccc(-c2cc(=O)c3cc(N4CCN[C@@H](C)C4)ccc3o2)cc1F [Cpd 38, 2-(3-fluoro-4-methoxyphenyl)-6-[(3S)-3-methylpiperazin-1-yl]-4H-chromen-4-one]
- SMN2 minigene FL mRNA relative to vehicle [1]: increased SMN2 minigene FL mRNA at low concentrations
- SMN2 minigene alternative splicing / exon 7 inclusion [1]: correction of SMN2 minigene alternative splicing
- EC (1.5-fold) [1]: ≤ 0.1 µM
- melting point: 100 to 102 °C
